# Several values for one entry are separate records, joined by “and”; a condition that tells them apart may be missing. Equal values may be shown once.
# Legend:
# [1] = Cytotoxicity assay (CellTiter-Glo, 72 h), MESO-1; type: cell-based; settings: human; for viability at 72 h, 9.53674e-05 uM: conc 9.53674e-5 uM; for viability at 72 h, 0.000190735 uM: conc 0.000190735 uM; for viability at 72 h, 0.00038147 uM: conc 0.00038147 uM; for viability at 72 h, 0.000762939 uM: conc 0.000762939 uM; for viability at 72 h, 0.00152588 uM: conc 0.00152588 uM; for viability at 72 h, 0.00305176 uM: conc 0.00305176 uM; for viability at 72 h, 0.00610352 uM: conc 0.00610352 uM; for viability at 72 h, 0.012207 uM: conc 0.012207 uM; for viability at 72 h, 0.0244141 uM: conc 0.0244141 uM; for viability at 72 h, 0.0488281 uM: conc 0.0488281 uM; for viability at 72 h, 0.0976562 uM: conc 0.0976562 uM; for viability at 72 h, 0.195312 uM: conc 0.195312 uM; for viability at 72 h, 0.390625 uM: conc 0.390625 uM; for viability at 72 h, 0.78125 uM: conc 0.78125 uM; for viability at 72 h, 1.5625 uM: conc 1.5625 uM; for viability at 72 h, 3.125 uM: conc 3.125 uM; for viability at 72 h, 6.25 uM: conc 6.25 uM; for viability at 72 h, 12.5 uM: conc 12.5 uM; for viability at 72 h, 50 uM: conc 50 uM
# Protocol: (§1) Jurkat cells were cultured in RPMI1640 medium supplemented with 10% foetal bovine serum, penicillin (50 U/ml), streptomycin (50 μg/ml), and Glutamax. SKOV-3 cells were cultured in DMEM medium supplemented with 10% fetal bovine serum, penicillin (50 U/ml), and streptomycin (50 μg/ml). MESO-1 cells were cultured in RPMI1640 medium supplemented with 10% fetal bovine serum, penicillin (50 U/ml), and streptomycin (50 μg/ml). All cell lines were seeded in a 384-well plate at a density of 1000 cells/well in 20 μl of media and incubated at 37 °C in a humidified incubator with 5% CO2. After 4 h, 2-fold dilution samples resolved in DMSO were added to the cell culture at the concentration of 0.5% (0.1 μl) and incubated for 72 h. Cell viabilities were measured using a CellTiter-Glo luminescent cell viability assay and EnVision multilabel plate reader.
# [2] = system: malignant pleural mesothelioma MESO-1 cells; assay: Cytotoxicity assay (CellTiter-Glo, 72 h), MESO-1; type: cell-based; settings: raw replicate data
# Protocol: as §1
# [3] = MESO-1 malignant pleural mesothelioma cells, raw replicate data, read-out: MESO1 viability (%)
smiles,measurement,setting,value
"CO[C@H]1C[C@@H]2CC[C@@H](C)[C@@](O)(O2)C(=O)C(=O)N2CCCC[C@H]2C(=O)O[C@H]([C@H](C)C[C@@H]2CC[C@@H](O)[C@H](OC)C2)CC(=O)[C@H](C)/C=C(\C)[C@@H](O)[C@@H](OC)C(=O)[C@H](C)C[C@H](C)/C=C/C=C/C=C/1C [Compound 1, rapamycin, reference compound]",viability at 72 h,"[1]; MESO-1 cells (malignant pleural mesothelioma), MESO-1 cells, 72 h, read-out: Plateau level of cell viability in the dose-response curve",~75%
same,"viability at 72 h, 9.53674e-05 uM",[1]; [3],79%
same,"viability at 72 h, 0.000190735 uM",[1]; [3],73.6%
same,"viability at 72 h, 0.00038147 uM",[1]; [3],83.4%
same,"viability at 72 h, 0.000762939 uM",[1]; [3],73.1%
same,"viability at 72 h, 0.00152588 uM",[1]; [3],116%
same,"viability at 72 h, 0.00305176 uM",[1]; [3],69.5%
same,"viability at 72 h, 0.00610352 uM",[1]; [3],78.3%
same,"viability at 72 h, 0.012207 uM",[1]; [3],77.6%
same,"viability at 72 h, 0.0244141 uM",[1]; [3],75.2%
same,"viability at 72 h, 0.0488281 uM",[1]; [3],75%
same,"viability at 72 h, 0.0976562 uM",[1]; [3],77%
same,"viability at 72 h, 0.195312 uM",[1]; [3],74.8%
same,"viability at 72 h, 0.390625 uM",[1]; [3],75.6%
same,"viability at 72 h, 0.78125 uM",[1]; [3],68.5%
same,"viability at 72 h, 1.5625 uM",[1]; [3],76.4%
same,"viability at 72 h, 3.125 uM",[1]; [3],73.6%
same,"viability at 72 h, 6.25 uM",[1]; [3],74.3%
same,"viability at 72 h, 12.5 uM",[1]; [3],71.1%
same,"viability at 72 h, 25 uM","[1]; MESO-1 malignant pleural mesothelioma cells, conc 25 uM, raw replicate data, read-out: MESO1 viability (%)",63.9%
same,"viability at 72 h, 50 uM",[1]; [3],1.1%
same,MESO1 viability (%),[2]; conc 9.53674e-5 uM,78.2% and 78.1%
same,MESO1 viability (%),[2]; conc 0.000190735 uM,77.7% and 77.2%
same,MESO1 viability (%),[2]; conc 0.00038147 uM,77.9% and 86.0%
same,MESO1 viability (%),[2]; conc 0.000762939 uM,70.2% and 70.0%
same,MESO1 viability (%),[2]; conc 0.00152588 uM,112.8% and 111.2%
same,MESO1 viability (%),[2]; conc 0.00305176 uM,76.5%
same,MESO1 viability (%),[2]; conc 0.00610352 uM,75.4% and 78.7%
same,MESO1 viability (%),[2]; conc 0.012207 uM,72.8% and 76.2%
same,MESO1 viability (%),[2]; conc 0.0244141 uM,77.3%
same,MESO1 viability (%),[2]; conc 0.0488281 uM,71.0% and 73.9%
same,MESO1 viability (%),[2]; conc 0.0976562 uM,74.5% and 75.3%
same,MESO1 viability (%),[2]; conc 0.195312 uM,73.7% and 71.3%
same,MESO1 viability (%),[2]; conc 0.390625 uM,76.1%
same,MESO1 viability (%),[2]; conc 0.78125 uM,74.4% and 74.1%
same,MESO1 viability (%),[2]; conc 1.5625 uM,76.3%
same,MESO1 viability (%),[2]; conc 3.125 uM,70.7% and 70.8%
same,MESO1 viability (%),[2]; conc 6.25 uM,70.6% and 74.9%
same,MESO1 viability (%),[2]; conc 12.5 uM,61.9% and 67.0%
same,MESO1 viability (%),[2]; conc 25 uM,64.2% and 64.1%
same,MESO1 viability (%),[2]; conc 50 uM,0.7% and 0.8%
"COC1CC2CCC(C)C(O)(O2)C(=O)C(=O)N2CCCCC2C(=O)OC(C(C)CC2CCC(O)C(OC)C2)CC(=O)C(C)C=C(C)C(O)C(OC)C(=O)C(C)CC(C)C=CCCC=C1C (centres unmarked) [Compound 15, 19,20-dihidro-rapamycin]","viability at 72 h, 9.53674e-05 uM",[1]; [3],94.1%
same,"viability at 72 h, 0.000190735 uM",[1]; [3],92%
same,"viability at 72 h, 0.00038147 uM",[1]; [3],98.8%
same,"viability at 72 h, 0.000762939 uM",[1]; [3],93.3%
same,"viability at 72 h, 0.00152588 uM",[1]; [3],97.7%
same,"viability at 72 h, 0.00305176 uM",[1]; [3],89.3%
same,"viability at 72 h, 0.00610352 uM",[1]; [3],90.8%
same,"viability at 72 h, 0.012207 uM",[1]; [3],87.6%
same,"viability at 72 h, 0.0244141 uM",[1]; [3],92.1%
same,"viability at 72 h, 0.0488281 uM",[1]; [3],82.9%
same,"viability at 72 h, 0.0976562 uM",[1]; [3],81.6%
same,"viability at 72 h, 0.195312 uM",[1]; [3],70.6%
same,"viability at 72 h, 0.390625 uM",[1]; [3],78.2%
same,"viability at 72 h, 0.78125 uM",[1]; [3],66.4%
same,"viability at 72 h, 1.5625 uM",[1]; [3],69.2%
same,"viability at 72 h, 3.125 uM",[1]; [3],67.6%
same,"viability at 72 h, 6.25 uM",[1]; [3],68.9%
same,"viability at 72 h, 12.5 uM",[1]; [3],63.9%
same,"viability at 72 h, 50 uM",[1]; [3],0.6%
same,MESO1 viability (%),[2]; conc 9.53674e-5 uM,97.4% and 107.3%
same,MESO1 viability (%),[2]; conc 0.000190735 uM,96.0% and 92.6%
same,MESO1 viability (%),[2]; conc 0.00038147 uM,101.5% and 100.0%
same,MESO1 viability (%),[2]; conc 0.000762939 uM,86.7% and 94.3%
same,MESO1 viability (%),[2]; conc 0.00152588 uM,92.8% and 93.2%
same,MESO1 viability (%),[2]; conc 0.00305176 uM,90.6%
same,MESO1 viability (%),[2]; conc 0.00610352 uM,91.6% and 97.1%
same,MESO1 viability (%),[2]; conc 0.012207 uM,80.5%
same,MESO1 viability (%),[2]; conc 0.0244141 uM,89.5% and 86.4%
same,MESO1 viability (%),[2]; conc 0.0488281 uM,83.3% and 88.8%
same,MESO1 viability (%),[2]; conc 0.0976562 uM,82.7% and 83.7%
same,MESO1 viability (%),[2]; conc 0.195312 uM,70.8% and 80.6%
same,MESO1 viability (%),[2]; conc 0.390625 uM,69.4% and 71.4%
same,MESO1 viability (%),[2]; conc 0.78125 uM,68.2% and 67.7%
same,MESO1 viability (%),[2]; conc 1.5625 uM,70.1% and 68.2%
same,MESO1 viability (%),[2]; conc 3.125 uM,66.5%
same,MESO1 viability (%),[2]; conc 6.25 uM,67.5% and 68.1%
same,MESO1 viability (%),[2]; conc 12.5 uM,65.8% and 62.8%
same,MESO1 viability (%),[2]; conc 25 uM,15.9% and 37.2% and 39.7%
same,MESO1 viability (%),[2]; conc 50 uM,0.367% and 0.476%
